Experimental data as given in patent US3980794A, “Method for promoting growth of poultry with 3-(5-nitro-2-imidazolyl)pyrazoles” (Eli Lilly and Company, priority 1975, dated 1976).
Like-named read-outs stand apart in the source and are kept apart here.

Columns and labels:
[1] = test system: Salmonella typhimurium; assay: Control of infections caused by Salmonella typhimurium in chickens, subcutaneous (Experiment 2); format: in vivo; conditions: Salmonella enterica, sc, 144 h, 6 days, read-out: Survival Ratio (converted); for responders at 7.5 mg/kg: 7.5 mg./kg. subcutaneous; for responders at 15 mg/kg: 15 mg./kg. subcutaneous; for responders at 30 mg/kg: 30 mg./kg. subcutaneous; for responders at 60 mg/kg: 60 mg./kg. subcutaneous
Description: The efficacy of the novel compounds in the control of infections caused by Salmonella typhimurium in chickens was evaluated in the following manner.
The test was carried out using day-old chicks weighing approximately 35 g. each. The chicks were divided into groups of 5 chicks per each dosage level. A portion of the chicks received the test compound which was suspended in 0.2 ml. of polyethylene glycol 200 and administered subcutanusly in the neck. […] All the chicks were challenged with a 1:200 dilution of a culture of the organism, 0.1 ml. of the dilution being injected into each chick in the leg intramuscularly. […] The test compounds are identified in the same manner as set forth in Experiment 1.
In the chart, column 1 lists the compounds tested; column 2, the dosage of test compound in mg./kg.; and column 3, the survival ratio.

[2] = test system: Pasteurella multocida; assay: Efficacy against Pasteurella multocida infections in mice when administered by injection (Experiment 1); format: in vivo, Swiss mice; conditions: ip; for responders at 5 mg/kg: 5.0 mg./kg. i.p.; for responders at 2.5 mg/kg: 2.5 mg./kg. i.p.; for responders at 7.5 mg/kg: 7.5 mg./kg. i.p.
Description: The efficacy of the novel compounds against Pasteurella multocida infections in mice when administered by injection was studied.
Female Swiss mice weighing from 15 to about 20 g. were used. The test compound, 5.0 mg., was weighed out and dissolved in 0.5 ml. of dimethyl sulfoxide, and this solution was added to 9.5 ml. of sodium carboxymethylcellulose suspension. Groups of five mice each were injected intraperitoneally with 0.1 ml. each of the above-prepared test composition. This preparation gave a test rate of 2.5 mg. per kilo of body weight of mouse. The compounds were tested at 2.5, 5.0, or 7.5 mg. per kilo of body weight of mouse, and the test preparations for rates of 5.0 and 7.5 mg./kg. were prepared in a similar manner. Immediately after receiving the test compound, the mice were challenged using log10 dilutions of 10^-^4, 10^-^5, 10^-^6, and 10^-^7 of a 16 to 20-hour tryptose broth culture of Pasteurella multocida at 0.1 ml. per mouse subcutaneously. Similar groups of nontreated control mice were also challenged, the challenge being administered subcutaneously. The groups of mice were observed daily for mortality and the total mortality in treated groups compared with that which occurred in the nonmedicated control groups. Each test compound is identified by the number of the example describing its preparation.
In the chart, column 1 lists the test compound; column 2, the dosage of test compound in mg./kg. of mouse body weight; column 3, the dilution of the challenge organism; and column 4, the ratio of the number of mice surviving the test at each dosage and challenge dilution to the number of mice tested at each dosage and challenge dilution, called the survival ratio.

[3] = challenge dilution 10^-^4, read-out: Survival Ratio (converted)
[4] = challenge dilution 10^-^5, read-out: Survival Ratio (converted)
[5] = challenge dilution 10^-^6, read-out: Survival Ratio (converted)

| Structure (SMILES) | responders at 7.5 mg/kg [1] | responders at 15 mg/kg [1] | responders at 30 mg/kg [1] | responders at 60 mg/kg [1] | responders at 5 mg/kg [2, 3] | responders at 5 mg/kg [2, 4] | responders at 5 mg/kg [2, 5] | responders at 2.5 mg/kg [2, 3] | responders at 2.5 mg/kg [2, 4] | responders at 2.5 mg/kg [2, 5] | responders at 7.5 mg/kg ([2]; challenge dilution 10^-^4, read-out: Survival Ratio) | responders at 7.5 mg/kg ([2]; challenge dilution 10^-^5, read-out: Survival Ratio) | responders at 7.5 mg/kg ([2]; challenge dilution 10^-^6, read-out: Survival Ratio) |
| --- | --- | --- | --- | --- | --- | --- | --- | --- | --- | --- | --- | --- | --- |
| CCOC(C)=Nc1c(C#N)c(-c2ncc([N+](=O)[O-])n2C)nn1C [Compound 13, Ethyl N-[4-cyano-1-methyl-3-(1-methyl-5-nitro-2-imidazolyl)pyrazol-5-yl]acetimidate] | 53.3% | 40% | 55% | 65% |  |  |  |  |  |  |  |  |  |
| Cn1nc(-c2ncc([N+](=O)[O-])n2C)c(C#N)c1N=COCCCl [Compound 13B, 2-Chloroethyl N-[4-cyano-1-methyl-3-(1-methyl-5-nitro-2-imidazolyl)pyrazol-5-yl]formimidate] | 10% | 65% | 50% | 70% | 90% | 70% | 80% |  |  |  |  |  |  |
| CC(C)COC=Nc1c(C#N)c(-c2ncc([N+](=O)[O-])n2C)nn1C [Compound 13C, Isobutyl N-[4-cyano-1-methyl-3-(1-methyl-5-nitro-2-imidazolyl)pyrazol-5-yl]formimidate] | 0% | 46.7% | 53.3% | 66.7% | 40% | 80% | 90% | 40% | 30% | 70% | 80% | 100% | 100% |
